Experimental data as given in BindingDB's records for doi:10.1021/jm970326r (University of Minnesota, 1998).
pKi: −log10 of the molar value.

Experiments:
[1] = biological target: Sigma non-opioid intracellular receptor 1 (Cavia porcellus) (UniProt Q60492); assay: Sigma-1 binding assay was done in guinea pig membranes by labeling the binding site with [3H](+)-pentazocine
[2] = biological target: Vesicular acetylcholine transporter (Torpedo); assay: Binding to vesicular acetylcholine transporter of torpedo synaptic vesicles
[3] = Sigma-1 binding assay was done in guinea pig membranes by labeling the binding site with [3H](+)-pentazocine.

Sigma non-opioid intracellular receptor 1 (Cavia porcellus), sequence (Q60492 whole entry, looked up): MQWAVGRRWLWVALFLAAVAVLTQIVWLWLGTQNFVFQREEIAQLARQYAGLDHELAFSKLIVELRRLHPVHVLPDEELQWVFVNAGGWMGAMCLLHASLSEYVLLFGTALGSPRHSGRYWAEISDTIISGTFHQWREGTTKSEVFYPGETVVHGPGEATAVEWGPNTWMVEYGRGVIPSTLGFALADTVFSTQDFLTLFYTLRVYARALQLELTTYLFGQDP

| Compound | pKi [1] | pKi [2] | pKi [3] |
| --- | --- | --- | --- |
| O[C@@H]1CCN(Cc2cccc(I)c2)C[C@H]1N1CCC2(CCc3ccccc32)CC1 [1-(3-iodobenzyl)-3-spiro[2,3-dihydro-1H-indene-1,4'-(hexahydropyridine)]-1-yl-(3R,4R)-hexahydro-4-pyridinol] | 6.55 | – | – |
| OC(CN1C2CCC1CC(c1ccccc1)C2)c1ccc(Cl)c(Cl)c1 (stereo not given) [1-(3,4-Dichloro-phenyl)-2-(3-phenyl-8-aza-bicyclo[3.2.1]oct-8-yl)-ethanol] | 6.60 | 7.22 | – |
| O=C(CCCN1CCC2(CCc3ccccc32)CC1)c1ccc(F)cc1 [1-(4-fluorophenyl)-4-spiro[2,3-dihydro-1H-indene-1,4'-(hexahydropyridine)]-1-yl-1-butanone] | 8.74 | – | – |
| OC(CCCN1C2CCC1CC(c1ccccc1)C2)c1ccc(F)cc1 (stereo not given) [1-(4-Fluoro-phenyl)-4-(3-phenyl-8-aza-bicyclo[3.2.1]oct-8-yl)-butan-1-ol] | – | 6.42 | – |
| O=C(CN1C2CCC1CC(c1ccccc1)C2)c1ccc(F)cc1 (stereo not given) [1-(4-Fluoro-phenyl)-2-(3-phenyl-8-aza-bicyclo[3.2.1]oct-8-yl)-ethanone] | 6.55 | 5.47 | – |
| CN1CC2(CCN(C[C@H](O)c3cccc(Br)c3)CC2)c2ccccc21 [(1R)-1-(3-bromophenyl)-2-(1-methyl-1,2-dihydro-1'H-spiro[indole-3,4'-piperidin]-1'-yl)ethanol] | 6.29 | 6.74 | – |
| O[C@H](Cc1ccc(Br)cc1)CN1CCC2(CCc3ccccc32)CC1 [(2R)-1-(4-bromophenyl)-3-{2,3-dihydrospiro[indene-1,4'-piperidine]-1'-yl}propan-2-ol] | – | 7.07 | – |
| O[C@@H](CN1CCC2(CCc3ccccc32)CC1)c1cccc(Br)c1 [(1R)-1-(3-bromophenyl)-2-(2,3-dihydro-1'H-spiro[indene-1,4'-piperidin]-1'-yl)ethanol] | 6.97 | 6.22 | – |
| CN1CC2(CCN(CCCC(=O)c3ccc(F)cc3)CC2)c2ccccc21 [1-(4-fluorophenyl)-4-[1-methylspiro[2,3-dihydro-1H-indole-3,4'-(hexahydropyridine)]-1-yl]-1-butanone] | 6.96 | – | – |
| O[C@H]1CCN(Cc2cccc(I)c2)C[C@@H]1N1C2CCC1CC(c1ccccc1)C2 (stereo partly drawn) [(3S,4S)-1-(3-Iodo-benzyl)-3-(3-phenyl-8-aza-bicyclo[3.2.1]oct-8-yl)-piperidin-4-ol] | 6.71 | – | – |
| CN1CC2(CCN([C@@H]3CN(Cc4cccc(I)c4)CC[C@H]3O)CC2)c2ccccc21 [1-(3-Iodobenzyl)-3-[1-methylspiro[2,3-dihydro-1H-indole-3,4'-(hexahydropyridine)]-1-yl]-(3R,4R)-hexahydro-4-pyridinol] | 6.91 | 7.77 | – |
| OC(Cc1ccc(Br)cc1)CN1C2CCC1CC(c1ccccc1)C2 (stereo not given) [1-(4-Bromo-phenyl)-3-(3-phenyl-8-aza-bicyclo[3.2.1]oct-8-yl)-propan-2-ol] | 7.51 | – | – |
| O[C@H]1CCN(Cc2ccc(F)cc2)C[C@@H]1N1C2CCC1CC(c1ccccc1)C2 (stereo partly drawn) [(3S,4S)-1-(4-Fluoro-benzyl)-3-(3-phenyl-8-aza-bicyclo[3.2.1]oct-8-yl)-piperidin-4-ol] | 6.62 | 6.49 | – |
| O[C@H]1CCCC[C@@H]1N1C2CCC1CC(c1ccccc1)C2 (stereo partly drawn) [(1S,2S)-2-(3-Phenyl-8-aza-bicyclo[3.2.1]oct-8-yl)-cyclohexanol] | 6.42 | – | – |
| OC(CN1C2CCC1CC(c1ccccc1)C2)c1cccc(Br)c1 (stereo not given) [1-(3-Bromo-phenyl)-2-(3-phenyl-8-aza-bicyclo[3.2.1]oct-8-yl)-ethanol] | 6.93 | – | – |
| OC(CN1C2CCC1CC(c1ccccc1)C2)c1ccc(Br)cc1 (stereo not given) [1-(4-Bromo-phenyl)-2-(3-phenyl-8-aza-bicyclo[3.2.1]oct-8-yl)-ethanol] | 7.76 | 6.84 | – |
| OC(CN1C2CCC1CC(c1ccccc1)C2)c1ccccc1Br (stereo not given) [1-(2-Bromo-phenyl)-2-(3-phenyl-8-aza-bicyclo[3.2.1]oct-8-yl)-ethanol] | – | 6.89 | 7.02 |
| OC(CN1CCC(c2ccccc2)CC1)c1ccc(Br)cc1 (stereo not given) [1-(4-Bromo-phenyl)-2-(4-phenyl-piperidin-1-yl)-ethanol] | – | 7.52 | – |
| CN1CC2(CCN(C[C@H](O)Cc3ccc(Br)cc3)CC2)c2ccccc21 [(2R)-1-(4-bromophenyl)-3-{1-methyl-1,2-dihydrospiro[indole-3,4'-piperidine]-1'-yl}propan-2-ol] | 6.72 | 6.38 | – |
| CN1CC2(CCN([C@@H]3CCCC[C@H]3O)CC2)c2ccccc21 [(1R,2R)-2-(1-methyl-1,2-dihydro-1'H-spiro[indole-3,4'-piperidin]-1'-yl)cyclohexanol] | 6.54 | 7.13 | – |
| OC(CN1C2CCC1CC(c1ccccc1)C2)c1c(Cl)cccc1Cl (stereo not given) [1-(2,6-Dichloro-phenyl)-2-(3-phenyl-8-aza-bicyclo[3.2.1]oct-8-yl)-ethanol] | 6.52 | – | – |
| O[C@@H]1CCN(Cc2ccc(F)cc2)C[C@H]1N1CCC2(CCc3ccccc32)CC1 [1-(4-fluorobenzyl)-3-spiro[2,3-dihydro-1H-indene-1,4'-(hexahydropyridine)]-1-yl-(3R,4R)-hexahydro-4-pyridinol] | 7.60 | 9.44 | – |
| O[C@@H]1CCCC[C@H]1N1CCC2(CCc3ccccc32)CC1 [(1R,2R)-2-(2,3-dihydro-1'H-spiro[indene-1,4'-piperidin]-1'-yl)cyclohexanol] | 7.68 | 8.12 | – |
| O[C@@H]1Cc2ccccc2C[C@H]1N1CCC2(CCc3ccccc32)CC1 [3-spiro[2,3-dihydro-1H-indene-1,4'-(hexahydropyridine)]-1-yl-(2R,3R)-1,2,3,4-tetrahydro-2-naphthalenol] | – | 9.44 | – |
| O=C(CCCN1C2CCC1CC(c1ccccc1)C2)c1ccc(F)cc1 (stereo not given) | 7.47 | – | – |
| OC(CN1C2CCC1CC(c1ccccc1)C2)c1ccccc1 (stereo not given) [1-Phenyl-2-(3-phenyl-8-aza-bicyclo[3.2.1]oct-8-yl)-ethanol] | – | 6.32 | – |
| O[C@H]1Cc2ccccc2C[C@@H]1N1C2CCC1CC(c1ccccc1)C2 (stereo partly drawn) [(2S,3S)-3-(3-Phenyl-8-aza-bicyclo[3.2.1]oct-8-yl)-1,2,3,4-tetrahydro-naphthalen-2-ol] | 6.76 | 8.07 | – |
